The values that follow come from patent US20160287565A1, “COMBINATION THERAPY FOR TREATING DISORDERS ASSOCIATED WITH EXCESS CORTISOL PRODUCTION” (Millendo Therapeutics, Inc., priority 2015, published 2016).

Data set [1] relates to Dogs. Put plainly: ATR-101 in dogs, serum steroid and steroid precursor levels by LC-MS/MS pre- and post-ACTH stimulation. The class given is in vivo, dog. The settings on record: 3 mg/kg daily 7 days then 30 mg/kg 7 days, oral gavage. How it is done:
Changes in steroid and steroid intermediate levels are shown as % reduction as compared to maximum level as measured on Day 0. *Day 1 data used for maximum steroid level. **Day 3 data used for maximum steroid level.
Dogs were administered daily doses of 3 mg/kg of ATR-101 for 7 days by oral gavage, and then 30 mg/kg for 7 days by oral gavage. Blood was collected on day 14 to measure basal steroid and steroid precursor serum levels (pre-ACTH stimulation) and steroid/steroid precursor levels post-ACTH stimulation by LC-MS/MS. For ACTH stimulation, 5 μg/kg (not to exceed 250 μg) of CORTROSYN™ (also known as cosyntropin or synthetic ACTH) was administered via bolus i.v. administration, and blood samples were collected 1 hour post-CORTROSYN™ administration. Changes in steroid and steroid precursor levels are shown as % reduction as compared to maximum level as measured on Day 0, except as noted (see, FIG. 2; *Day 1 data used for maximum steroid level; **Day 3 data used for maximum steroid level).

The test system of data set [2] is human adult patients with Cushing's disease. The settings on record: cited from earlier work.
Data set [3] has as its system human, adult patients with Cushing's disease. To be noted: cited from earlier work.

As for `CC(C)c1cccc(C(C)C)c1NC(=O)NCC1(c2ccc(N(C)C)cc2)CCCC1` [ATR-101, N-(2,6-bis(1-methylethyl)-phenyl)-N′-((1-(4-(dimethylamino)phenyl)cyclopentyl)-methyl)urea], the “synthesis of steroids and steroid precursors produced in the adrenal cortex” value in data set [1] (day 14, FIG. 4) is recorded as “broad inhibitory effects”. Also, in data set [1] (day 14 serum), the 11-deoxycorticosterone level entry was “decreased”, the 11-deoxycortisol level result is “decreased” and the testosterone level result is on record as “decreased”.

For the molecule `N#Cc1ccc([C@H]2CCc3cncn32)c(F)c1` [osilodrostat], the “secretion of ACTH” value in data set [2] (during LCI699 treatment (day 70) vs day 1, FIG. 2A) is reported as “increased secretion of ACTH”. The “testosterone levels (in females)” value in data set [2] (during LCI699 treatment (day 70), 8 females, FIG. 2C) is “increased”. For the same molecule, the 11-deoxycortisol level result in data set [2] (during LCI699 treatment (day 70), FIG. 2B) is “build-up”. Moreover, the 11-deoxycorticosterone levels result in data set [2] (during LCI699 treatment (day 70), FIG. 2D) is given as “increased”. The serum cortisol entry in data set [2] (during LCI699 treatment (day 70), up to 100 mg/day b.i.d., n=12) is “decrease in serum cortisol”. For the same molecule, in data set [3] (22-week treatment course), the females developing acne entry is given as “three”, the females developing hirsutism result is reported as “two” and the “females with elevated testosterone who developed adverse symptoms of androgen excess” value is on record as “Four”. For the same molecule, the “women with above normal testosterone levels during the treatment course” value in data set [3] (of the 12 women who completed 22 weeks, normal range 2-45 ng/dL, 4-60 mg/day) is listed as 9.
